{
  "source": "patent US9855320B2",
  "about": "“Angiogenin for treatment of glaucoma” (CHUNG-ANG UNIVERSITY INDUSTRY-ACADEMIC COOPERATION …, priority 2011, dated 2018)",
  "key": {"[1]": {"test_system": "Schlemm's canal peripheral tissue in anterior chamber angle", "experiment": "H&E staining of Schlemm's canal peripheral tissue in anterior chamber angle of glaucoma model after instillation", "assay_type": "in vivo, rat", "conditions": "after instillation compared to before instillation"}, "[2]": {"test_system": "TGF-β", "experiment": "Reverse transcription polymerase chain reaction on injured tissue of corneal chemical burn model, TGF-β", "assay_type": "in vivo, rat", "conditions": "third day and seventh day after keratoconjunctival chemical injury", "experimental": "(§1) Three days, and 1, 2, 4, and 8 weeks after injuring, corneal opacity and neoangiogenesis level were assessed in consideration of images of anterior ocular segment, and on the third day and the seventh day, the respective conjunctiva damaged parts were collected and then subjected to a reverse transcription polymerase chain reaction to assay expression of IL-1a, TGF-β, SDF-1, and caspase-3.\nTissues obtained from chronic intraocular pressure increase model and corneal chemical burn model were frozen, and then cut into small parts by using a fine knife. The tissue parts were treated with 1 ml of TRI reagent (Molecular Research Center, Inc.) and then, tissue and cell were lysed by homogenizer. The respective implication cDNA […] 0.2 mM dNTP, 10×buffer, 10 pmols primer, and 0.2 U Taq polymerase were mixed to obtain a volume of 20 μl, and then, PCR thermal cycler (a machine for PCR) was used for reaction for 5 minutes at 95° C., 40 second at 94° C., 40 seconds at 48 to 64° C., 40 seconds (35 cycles) at 72° C., and 10 minutes at 72° C. The amplified polymerase chain reaction product was identified by 1% agarose gel electrophoresis. β actin was used as a positive control for the polymerase chain reaction, and relative expression morphs of a target gene with respect to β actin expression were compared. […]"}, "[3]": {"test_system": "Brn-3a marked retinal ganglion cell", "experiment": "Brn-3a immunochemical staining of retina, chronic intraocular pressure increase model", "assay_type": "in vivo, rat", "experimental": "0.05 cc/50 g of Tiletimine and Zolazepam-mixed medicament (Zoletil) and Xylazine (Rompum) were mixed at a ratio of 1:1 and then administered to 20 rats by intramuscular injection, thereby anesthetizing the rats. A limbus periphery was divided into four portions, each of which was then subjected to 2 mm dissection at an interval of 90 degrees, and then, two radial conjunctival excisions were performed on upper dissection periphery. […] After surgical isolation of vein, the vein was lifted up by using 3 mm-width spatula to be spaced apart from the peripheral tissue, and then, was subjected to electric ablation while being careful for the peripheral tissue not to have any thermal damage or any mechanical damage due to contact. Intraocular pressure was consecutively measured three or more times by using Tonopen (Solan, Fla., USA), and only reliable intraocular pressure values within 5 percentile were recorded. […] Before the operation, and 3 days, and 1, 2, 4, and 8 weeks after the operation, intraocular pressure was measured, and the rats were sacrificed to extract eyes therefrom, which were then subjected to tissue examination and immunechemical staining with respect to Brn-3a and CD11b, and a reverse transcription polymerase chain reaction was used to measure CD11b value in retinal tissue. […]"}, "[4]": {"test_system": "angiogenin", "experiment": "Angiogenin immunohistochemical staining of glaucoma rat model anterior chamber angle after instillation", "assay_type": "in vivo", "conditions": "episcleral venous ablation glaucoma model, 1 hour after instillation, compared to before angiogenin instillation", "experimental": "Eyeballs donated for research purposes were pre-fixed in a 4% paraformaldehyde solution for 6 hours, and then, a tissue thereof was cut to be perpendicular to cornea, including cornea, limbus, and conjunctival, and the obtained tissue was fixed at room temperature for 6 hours. The fixed tissue was rapidly frozen and then a frozen tissue section was prepared and attached to slide glass. Thereafter, for immunohistochemical staining, the tissue section was washed with distilled water for 10 minutes and then, treated with 1% hydrogen peroxide solution for 20 minutes and then, washed three times with 0.02M phosphate buffer solution and treated with normal horse serum for 30 minutes. Then, primary antibody of angiogenin and Indoleamine 2,3-dioxygenase (IDO) were applied thereto for 48 hours, and then the result tissue were washed with PBS, and then, secondary antibody was applied thereto at room temperature for 1 hour. When immunohistochemical staining was completed, the tissue was sealed by poly-mount and identified by optical microscopy. […]"}, "[5]": {"test_system": "chronic intraocular pressure increase rat model", "experiment": "Intraocular pressure in chronic intraocular pressure increase rat model (episcleral venous electric ablation)", "assay_type": "in vivo", "experimental": "0.05 cc/50 g of Tiletimine and Zolazepam-mixed medicament (Zoletil) and Xylazine (Rompum) were mixed at a ratio of 1:1 and then administered to 20 rats by intramuscular injection, thereby anesthetizing the rats. A limbus periphery was divided into four portions, each of which was then subjected to 2 mm dissection at an interval of 90 degrees, and then, two radial conjunctival excisions were performed on upper dissection periphery. […] After surgical isolation of vein, the vein was lifted up by using 3 mm-width spatula to be spaced apart from the peripheral tissue, and then, was subjected to electric ablation while being careful for the peripheral tissue not to have any thermal damage or any mechanical damage due to contact. Intraocular pressure was consecutively measured three or more times by using Tonopen (Solan, Fla., USA), and only reliable intraocular pressure values within 5 percentile were recorded. 10 eyes of 10 rats were daily treated 4 times with angiogenin 10 μl 2 days before test, and even after espisderal venous electric ablation, 4 times a day at time intervals of 6 hours. The other 10 eyes of the rats, as a control, were consecutively treated in the same manner with physiological saline solution 10 μl before and after the ablation. Before the operation, and 3 days, and 1, 2, 4, and 8 weeks after the operation, intraocular pressure was measured, and the rats were sacrificed to extract eyes therefrom, which were then subjected to tissue examination and immunechemical staining with respect to Brn-3a and CD11b, and a reverse transcription polymerase chain reaction was used to measure CD11b value in retinal tissue."}, "[6]": {"test_system": "corneal chemical burn model", "experiment": "Corneal chemical burn model: corneal opacity and corneal neoangiogenesis on anterior ocular segment images", "assay_type": "in vivo, rat", "experimental": "Regarding 20 eyes of 20 rats, filter paper was cut to a round shape having a diameter of 4 mm and completely wet with NaOH, and then, placed on corneal and conjunctiva with upper corneal limbus therebetween for 6 seconds, and then, the eyes were washed. 10 eyes of the 10 rats were treated with angiogenin 10 μl four times a day at time intervals of 6 hours two days before test, and even after the NaOH injury, treated 4 times a day. The remaining 10 eyes were treated with physiological saline two days before the injury in the same manner as used with angiogenin. Angiogenin and physiological saline were all administered only up to 7 days after injuring.\nas §1\nOn the corneal neoangiogenesis image, the region where blood vessel was grown was divided in the wedge shape at intervals of 1 hour while the corneal peak was used as a reference, and an area thereof was calculated, and the area was calculated according to this equation: A=C/12×3.1416 [r^2−(r−l)^2]. (A: new vessel area, C: time occupied when divided by 12 hours, r: corneal […], and l: vascular grown length)"}, "[7]": {"conditions": "from 2 weeks after the injury to 8 weeks"}},
  "data": [
    {"substance": "angiogenin: recombinant human angiogenin (R&D systems); 14.4 kDa single chain protein of 123 amino acids, a ribonuclease inducing angiogenesis", "values": [
      {"measurement": "diameter and intercellular interval of Schlemm's canal", "setting": "[1]", "result": "increased"},
      {"measurement": "TGF-β expression compared to the control", "setting": "[2]", "result": "less expressed"},
      {"measurement": "density of Brn-3a marked retinal ganglion cell", "setting": "[3]", "result": "well maintained"},
      {"measurement": "angiogenin stain in anterior chamber angle / at trabecular meshwork", "setting": "[4]", "result": "intensified"},
      {"measurement": "average intraocular pressure", "setting": "[5]; 1 week after the treatment, control 27.8±4.1", "result": "21.4±6.2", "unit": "mmHg"},
      {"measurement": "average intraocular pressure", "setting": "[5]; 2 weeks after the treatment, control 25±3.0", "result": "20.8±4.0", "unit": "mmHg"},
      {"measurement": "average intraocular pressure", "setting": "[5]; 4 weeks after the treatment, control 25.6±1.6", "result": "23.6±2.0", "unit": "mmHg"},
      {"measurement": "average intraocular pressure", "setting": "[5]; 8 weeks after the treatment, control 23.0±2.4", "result": "21.7±3.4", "unit": "mmHg"},
      {"measurement": "average intraocular pressure compared to the control (in words)", "setting": "[5]; 3 days, and 1, 2, and 4 weeks after the episcleral venous injury", "result": "significantly lower"},
      {"measurement": "average intraocular pressure", "setting": "[5]; before test, 10 eyes", "result": "20.6±1.9", "unit": "mmHg"},
      {"measurement": "average intraocular pressure", "setting": "[5]; for 8 weeks (overall average), control 25.4±3.6", "result": "21.2±3.8", "unit": "mmHg"},
      {"measurement": "intraocular pressure difference to the control", "setting": "[5]; third day after the treatment (biggest difference)", "result": "6.75±0.3", "unit": "mmHg"},
      {"measurement": "average intraocular pressure", "setting": "[5]; three days after the treatment, control 27.3±2.9", "result": "20.7±2.6", "unit": "mmHg"},
      {"measurement": "corneal opacity compared to the control", "setting": "[6]; [7]", "result": "significantly low"},
      {"measurement": "corneal opacity grade (most of the group)", "setting": "[6]; [7]", "result": "grade 1 or grade 2"},
      {"measurement": "corneal new vessel area", "setting": "[6]; on the second week after injury", "result": "did not change"},
      {"measurement": "corneal opacity compared to the control", "setting": "[6]; up to the seventh day after injury", "result": "no significant difference"}
    ]}
  ]
}
